According to patent US12365656B2, “Oxazolidinone compounds and methods of use thereof as antibacterial agents” (priority 2019, dated 2025):
Converted amounts (≈) assume the structure as drawn. Like-named read-outs stand apart in the source and are kept apart here.

Key:
Type in all cases: cell-based
[1] = system: mitochondrial protein synthesis in HepG2 cells; experiment: Mitochondrial protein synthesis assay; settings: Homo sapiens, 96 h, 4 days, COX-1 relative to SDH-A / Janus Green, In Cell ELISA, read-out: MPS IC50
[2] = system: Mycobacterium tuberculosis (Mtb-GFP; H37Rv pMSP12::GFP); experiment: microbe, parasite or virus in culture; settings: Mycobacterium tuberculosis, H37RV, 168 h, pH 6.8, read-out: Mtb Glu MITC95
[3] = system: Mycobacterium tuberculosis (Mtb-GFP; H37Rv pMSP12::GFP); experiment: microbe, parasite or virus in culture; settings: Mycobacterium tuberculosis, H37RV, 168 h, pH 6.8, read-out: Mtb Cho MITC95

SMILES	IC50 [1]	MIC [2]	MIC [3]
O=C1O[C@@H](CO)CN1c1ccc(-c2ccc(S(=O)(=O)N3CCC3)cc2)c(F)c1 [Example 38, (5R)-3-[4′-(azetidine-1-sulfonyl)-2-fluoro[1,1′-biphenyl]-4-yl]-5-(hydroxymethyl)-1,3-oxazolidin-2-one]	> 13 µM	6.3 µM (≈ 2.56 µg/mL)	6.3 µM (≈ 2.56 µg/mL)
CS(=O)(=O)Cc1ccc(-c2ccc(N3C[C@H](CO)OC3=O)cc2F)cc1 [Example 39]	1.5 µM	1.6 µM (≈ 0.607 µg/mL)	1.2 µM (≈ 0.455 µg/mL)
CC1(c2c(F)cc(N3C[C@H](CO)OC3=O)cc2F)CCS(=O)(=O)CC1 [Example 41, 4-{2,6-difluoro-4-[(5R)-5-(hydroxymethyl)-2-oxo-1,3-oxazolidin-3-yl]phenyl}-4-methyl-lλ^6-thiane-1,1-dione]	> 100 µM	6.3 µM (≈ 2.36 µg/mL)	9.4 µM (≈ 3.53 µg/mL)
CC(=O)NC[C@H]1CN(c2ccc(N3CCOCC3)c(F)c2)C(=O)O1 [linezolid, reference compound]	8 µM	4.58 µM (≈ 1.55 µg/mL)	3.14 µM (≈ 1.06 µg/mL)
